Numbers after ± are expanded uncertainties.
Key:
[1] = 101.33 kPa, Liquid, conductivity meter
[2] = molar heat capacity at constant pressure; conditions: 101.33 kPa, Liquid, Small sample (50 mg) DSC

SMILES | electrical conductivity ([1]; 303.2 K) [S/m] | electrical conductivity ([1]; 308.2 K) [S/m] | electrical conductivity ([1]; 313.2 K) [S/m] | electrical conductivity ([1]; 318.2 K) [S/m] | electrical conductivity ([1]; 323.2 K) [S/m] | electrical conductivity ([1]; 328.2 K) [S/m] | electrical conductivity ([1]; 333.2 K) [S/m] | electrical conductivity ([1]; 338.2 K) [S/m] | electrical conductivity ([1]; 343.2 K) [S/m] | electrical conductivity ([1]; 348.2 K) [S/m] | electrical conductivity ([1]; 353.2 K) [S/m] | molar heat capacity at constant pressure ([2]; 303.2 K) [J/K/mol] | molar heat capacity at constant pressure ([2]; 308.2 K) [J/K/mol] | molar heat capacity at constant pressure ([2]; 313.2 K) [J/K/mol] | molar heat capacity at constant pressure ([2]; 318.2 K) [J/K/mol] | molar heat capacity at constant pressure ([2]; 323.2 K) [J/K/mol] | molar heat capacity at constant pressure ([2]; 328.2 K) [J/K/mol] | molar heat capacity at constant pressure ([2]; 333.2 K) [J/K/mol] | molar heat capacity at constant pressure ([2]; 338.2 K) [J/K/mol] | molar heat capacity at constant pressure ([2]; 343.2 K) [J/K/mol] | further results
CCCCn1cc[n+](C)c1.F[P-](F)(F)(F)(F)F [1-butyl-3-methylimidazolium hexafluorophosphate] | 0.114 ± 0.002 | 0.149 ± 0.003 | 0.193 ± 0.006 | 0.245 ± 0.018 | 0.308 ± 0.006 | 0.383 ± 0.008 | 0.468 ± 0.018 | 0.556 ± 0.022 | 0.664 ± 0.018 | 0.917 ± 0.026 | 1.21 ± 0.024 | 412.06 ± 8.5 | 417.75 ± 11 | 420.59 ± 11 | 423.43 ± 11 | 423.43 ± 11 | 426.27 ± 11 | 429.12 ± 11 | 431.96 ± 11 | 434.8 ± 11 | molar heat capacity at constant pressure ([2]; 348.2 K): 440.48 ± 11 J/K/mol; molar heat capacity at constant pressure ([2]; 353.2 K): 443.32 ± 11 J/K/mol; molar heat capacity at constant pressure ([2]; 358.2 K): 443.32 ± 8.5 J/K/mol
CCCCn1cc[n+](C)c1.COS(=O)(=O)[O-] [1-butyl-3-methylimidazolium methyl sulfate] | 0.217 ± 0.02 | 0.276 ± 0.018 | 0.348 ± 0.022 | 0.43 ± 0.014 | 0.522 ± 0.016 | 0.626 ± 0.022 | 0.741 ± 0.016 | 0.867 ± 0.02 | 1.01 ± 0.022 | 1.32 ± 0.026 | 1.67 ± 0.033 | 375.47 ± 7.5 | 380.48 ± 7.5 | 382.98 ± 7.5 | 382.98 ± 7.5 | 385.49 ± 7.5 | 387.99 ± 7.5 | 390.49 ± 7.5 | 393 ± 7.5 | 393 ± 7.5 | molar heat capacity at constant pressure ([2]; 348.2 K): 398 ± 7.5 J/K/mol; molar heat capacity at constant pressure ([2]; 353.2 K): 398 ± 7.5 J/K/mol; molar heat capacity at constant pressure ([2]; 358.2 K): 400.51 ± 7.5 J/K/mol
CCCCn1cc[n+](C)c1.F[B-](F)(F)F [1-butyl-3-methylimidazolium tetrafluoroborate] | 0.295 ± 0.016 | 0.364 ± 0.018 | 0.446 ± 0.009 | 0.542 ± 0.011 | 0.651 ± 0.013 | 0.783 ± 0.016 | 0.926 ± 0.019 | 1.08 ± 0.022 | 1.25 ± 0.025 | 1.67 ± 0.033 | 2.18 ± 0.044 | 368.42 ± 6.8 | 370.68 ± 6.8 | 372.94 ± 6.8 | 375.2 ± 6.8 | 377.46 ± 6.8 | 379.72 ± 6.8 | 381.98 ± 6.8 | 384.24 ± 6.8 | 386.5 ± 6.8 | molar heat capacity at constant pressure ([2]; 348.2 K): 388.76 ± 6.8 J/K/mol; molar heat capacity at constant pressure ([2]; 353.2 K): 391.02 ± 6.8 J/K/mol; molar heat capacity at constant pressure ([2]; 358.2 K): 393.28 ± 6.8 J/K/mol
CCCCn1cc[n+](C)c1.O=S(=O)([O-])C(F)(F)F [1-butyl-3-methylimidazolium trifluoromethanesulfonate] | 0.23 ± 0.018 | 0.286 ± 0.02 | 0.358 ± 0.081 | 0.437 ± 0.02 | 0.521 ± 0.02 | 0.619 ± 0.018 | 0.724 ± 0.018 | 0.841 ± 0.02 | 0.967 ± 0.02 | 1.25 ± 0.025 | 1.57 ± 0.032 | 443.96 ± 8.6 | 443.96 ± 8.6 | 446.85 ± 8.6 | 449.73 ± 8.6 | 452.61 ± 12 | 452.61 ± 12 | 455.5 ± 12 | 458.38 ± 12 | 461.26 ± 12 | molar heat capacity at constant pressure ([2]; 348.2 K): 464.14 ± 12 J/K/mol; molar heat capacity at constant pressure ([2]; 353.2 K): 467.03 ± 12 J/K/mol; molar heat capacity at constant pressure ([2]; 358.2 K): 469.91 ± 12 J/K/mol

— the NIST ThermoML archive (doi:10.1016/j.tca.2008.10.015)
